Experiments:
BT474 = assay: Sphere test (formation of tumour mammospheres); format: cell-based; set-up: ACTIVITY IN SPHERE TEST % sphere formation BT474: concentration or dose not given beside the values; conditions: for ACTIVITY IN SPHERE TEST % sphere formation BT474: BT474 mammospheres, 7 days in suspension culture
Excerpt: (§1) The formation of spheres derived from breast tumours has been described as an effective method for enrichment of cell cultures in CSCs because of the higher ability of cells derived from these culture in generating tumours in vivo when transplanted in immunocompromised mice (Ponti D, et al., (2005) Cancer Res 65(13):5506-11, 34). A directly proportional relationship is therefore established between the percentage of the CSCs subpopulation in the culture and the ability to form spheres. Tumour cell lines growing in suspension are used in these tests in order to enrich the culture in tumour stem cells. CSCs are the only cells capable of proliferating in these conditions, giving rise to structures named spheres. In fact, the cells that grow in suspension acquire the properties of tumour stem cells and are used in the assays used in this patent for identifying drugs effective against them. In principle, compounds that affect tumour stem cells should slow their growth and potentially cause their death. This assay is tuned for breast cancer cell lines according to Leis, O., et al (2012), Oncogene, 31, 1354-1365. Cells are seeded at a density of 1,000 cells/mL on 6-well plates, previously treated with poly-HEMA (poly(2-hydroxyethyl methacrylate)), Sigma-Aldrich) to prevent the cells adhering to the plastic of the plate. A DMEM high glucose medium supplemented with F12 (Nutrient Mixture F-12 HAM, Sigma), B27 (B27 Supplement 50X, Gibco 17504-044) and growth factors, EGF and bFGF is used for culture. Methylcellulose at a final concentration of 0.5% was added to increase the viscosity of the culture medium. Cells were incubated for 7 days at 37° C, adding growth factors (20 ng/mL of each factor), every two days and counted under a microscope.

BT-474 = assay: Cell viability (cytotoxicity) assay with MTT; format: cell-based; conditions: for TOXICITY 1uM BT-474 (% viab. approx .): approximate viability percentage
Description: (§2) In order to determine the toxicity of the compound, cell viability assays were performed with MTT on breast tumour lines MCF-7, BT-474 and MDA-MB-436. […] The fact that cell viability was not affected at a high concentration reflects the low toxicity of the compound at the dose required for its effectiveness in functional assays.

MCF-7 [1] = assay: Cell viability (cytotoxicity) assay with MTT; format: cell-based; conditions: for TOXICITY 1uM MCF-7 (% viab. approx .): approximate viability percentage
Description: as §2

MCF-7 [2] = assay: Sphere test (formation of tumour mammospheres); format: cell-based; set-up: ACTIVITY IN SPHERE TEST % sphere formation MCF-7: concentration or dose not given beside the values; conditions: for ACTIVITY IN SPHERE TEST % sphere formation MCF-7: MCF-7 mammospheres, 7 days in suspension culture
Excerpt: as §1

MDA-MB-436 [3] = assay: Sphere test (formation of tumour mammospheres); format: cell-based; conditions: for ACTIVITY IN SPHERE TEST % sphere formation MDA-MB-436: MDA-MB-436 mammospheres, 7 days in suspension culture
Excerpt: as §1

SOX-2 = assay: Reporter of the promoter region of enhancer R1 of SOX-2 in a transiently transfected breast tumour line; format: cell-based; conditions: breast tumour line MDA_MB-436 / HRE9X-LUC; cells cultivated in suspension; Fig. 2
Excerpt: In order to identify whether the direct inhibitors of mammosphere formation and HIF activity inhibited the transcriptional activation of SOX2, reported in breast cancer CSCs (Leis, O., et al (2012), Oncogene, 31, 1354-1365), breast tumour lines were constructed, transiently transfected with the promoter region of enhancer R1 of SOX-2 by Lipofectamine (Invitrogen) according to the manufacturer's instructions. Their induction on cultivating the cells in suspension was compared and the inhibition of this activation was measured on treating the cells with the inhibitor IQM11PS04.

HIF = assay: HRE-LUC test (9XHRE-LUC luciferase reporter of HIF activity in a breast tumour line); format: cell-based, human; conditions: for inhibition at 5 µM: Homo sapiens, inhibition percentage, read-out: HIF HRE-LUC (% inhib. 5µM)
Excerpt: In order to identify direct inhibitors of HIF activity, a breast tumour line MCF7 was first constructed containing the deoxyribonucleic acid sequences (DNA) of the region located between the positions -985 and -951 of the human vascular endothelium growth factor (hVEGF), repeated nine times (X9) and fused to the luciferase reporter gene (LUC) (Moreno-Manzano V, et al (2010) JBC 285 (2) 1333-1342). This plasmid called 9XHRE-LUC, kindly given by Dr Manuel Ortiz de Landazuri of the La Princesa Hospital of Madrid, was prepared using a commercial kit (Endofree Maxi-Prep; Qiagen, Inc., Valencia, CA). Transfections were performed with Lipofectamine (Invitrogen) according to the manufacturer's instructions.

MDA-MB-436 [4] = assay: Cell viability (cytotoxicity) assay with MTT; format: cell-based; conditions: 1µM and tenfold higher dose
Description: as §2

Structure (SMILES) | ACTIVITY IN SPHERE TEST % sphere formation BT474 (BT474) [%] | TOXICITY 1uM BT-474 (% viab. approx .) (BT-474) [%] | TOXICITY 1uM MCF-7 (% viab. approx .) (MCF-7 [1]) [%] | ACTIVITY IN SPHERE TEST % sphere formation MCF-7 (MCF-7 [2]) [%] | ACTIVITY IN SPHERE TEST % sphere formation MDA-MB-436 (MDA-MB-436 [3]) [%] | inhibition of the induction of SOX2 (expression of the promoter region of enhancer R1 of SOX-2) (SOX-2) | inhibitory ability in the formation of mammospheres (BT474; 1 µM added in the final stage of sphere formation, BT474, versus DMSO) | action on HIF-2α (HIF; 1µM and tenfold higher dose) | inhibition at 5 µM (HIF) [%] | inhibition in the expression of luciferase (HRE-LUC test) (HIF; increasing concentrations, Fig. 1) | percentage of cell death in treated cultures (MDA-MB-436 [4]) | percentage of cell death in treated cultures (BT-474; 1µM and tenfold higher dose, BT-474) | percentage of cell death in treated cultures (MCF-7 [1]; 1µM and tenfold higher dose, MCF-7) | inhibitory ability in the formation of mammospheres (MDA-MB-436 [3]; 1 µM added in the final stage of sphere formation, MDA-MB-436, versus DMSO) | inhibitory ability in the formation of mammospheres (MCF-7 [2]; 1 µM added in the final stage of sphere formation, MCF7, versus DMSO)
COc1cccc(C2=NC3COC(=O)CC3O2)c1 (stereo not shown) [IQM11PS01, 2-(3-methoxyphenyl)-7,7a-dihydro-3aH-pyrano[3,4-d]oxazole-6(4H)-one] | 2 | 97 | 115 | 0 |  |  |  |  |  |  |  |  |  |  | 
COc1cc(OC)cc(C2=NC3COC(=O)CC3O2)c1 (stereo not shown) [IQM11PS02, 2-(3,5-dimethoxyphenyl)-7,7a-dihydro-3aH-pyrano[3,4-d]oxazole-6(4H)-one] | 4 | 55 | 99 | 0 |  |  |  |  |  |  |  |  |  |  | 
O=C1CC2OC(c3cc(OCc4ccccc4)cc(OCc4ccccc4)c3)=NC2CO1 (stereo not shown) [IQM11PS03, 2-(3,5-bis(benzyloxy)phenyl)-7,7a-dihydro-3aH-pyrano[3,4-d]oxazole-6(4H)-one] | 12 | 97 | 98 | 0 | 88 |  |  |  |  |  |  |  |  |  | 
CCCOc1cccc(C2=NC3COC(=O)CC3O2)c1 (stereo not shown) [IQM11PS04, 2-(3-propoxyphenyl)-7,7a-dihydro-3aH-pyrano[3,4-d] oxazole-6(4H)-one] | 1 | 89 | 109 | 0 |  | significantly inhibits | significant inhibitory ability | significant action | 92 | significantly inhibits | did not cause a significant increase | did not cause a significant increase | did not cause a significant increase | significant inhibitory ability | significant inhibitory ability
CCCCCOc1cccc(C2=NC3COC(=O)CC3O2)c1 (stereo not shown) [IQM11PS05, 2-(3-pentyloxyphenyl)-7,7a-dihydro-3aH-pyrano[3,4-d]oxazole-6(4H)-one] | 8 | 168 | 92 | 0 |  |  |  |  | 96 |  |  |  |  |  | 
O=C1CC2OC(c3cccc(OCCN4CCOCC4)c3)=NC2CO1 (stereo not shown) [IQM11PS06, 2-(3-(2-morpholinoethoxy)phenyl)-7,7a-dihydro-3aH-pyrano[3,4-d]oxazole-6(4H)-one] | 27 | 86 | 97 | 20 | 79 |  |  |  |  |  |  |  |  |  | 

From patent EP3031809A1, “2-phenyl-7,7a-dihydro-3aH-pyran[3,4-d]oxazol-6(4H)-ones” (CONSEJO SUPERIOR DE INVESTIGACIONES CIENTIFICAS, priority 2014, dated 2016)
